Laboratory results reported in patent US10815276B2, “Cell penetrating peptides and methods of making and using thereof” (Entrada Therapeutics, Inc., priority 2014, dated 2020).
pIC50, pKd: −log10 of the molar value. Starred links: 1 amine or outer side, 2 acyl side, 3 side chain; linkers in the order of their positions; H or OH if unused. Positions of bridges follow the written chain, without caps; N, C: chain ends. Non-standard residues stand in square brackets, D forms with d. Residues, ends and D or L forms follow the SMILES beside them. No end group written: not given here. Trimesoyl = O=C(c1cc(C(=O)[*:2])cc(C(=O)[*:3])c1)[*:1]; Phe(4-F) = N[C@@H](Cc1ccc(F)cc1)C(=O)O; dPhe(4-F) = N[C@H](Cc1ccc(F)cc1)C(=O)O; 2Nal = N[C@@H](Cc1ccc2ccccc2c1)C(=O)O; Pip = O=C(O)[C@@H]1CCCCN1; Dap = NC[C@H](N)C(=O)O

Tests used:
[1] = tested on: mouse ventricular cardiac myocytes; experiment: Live-cell confocal microscopy of cardiomyocytes; assay type: cell-based; details: 5 μM peptide or 6 μM conjugate, 3 h
Method: FIGS. 35A, 35B, 35C, and 35D display live cell confocal images of mouse ventricular cardiac myocytes after treatment for 3 h with 5 μM c(FΦRRRRQ)-K(FITC) (FIG. 35A) and c(fΦRrRrQ)-K(FITC) (FIG. 35B).
The disclosed cyclic CPPs are very effective in delivering proteins into cardiomyocytes. Fluorescein isothiocyanate (FITC)-labeled cyclic CPPs [c(FΦRRRRQ)-K(FITC)-NH2 and c(fΦRrRrQ)-K(FITC)-NH2] were synthesized and their internalization into mouse ventricular cardiac myocytes was tested by treating the cells with 5 μM FITC-labeled peptide for 3 h. After washing away the extracellular peptides, the internalization of CPPs was examined by fluorescent live-cell confocal microscopy. […] Whether the cyclic CPPs are capable of transporting full-length proteins into cardiac muscle cells was tested. Calmodulin (with an engineered Thr5Cys), a multifunctional calcium-binding messenger protein, was conjugated to c(FΦRRRRQ)-C-NH2 at the Cys residue near N-terminus through a disulfide bond. The disulfide exchange reaction is highly specific, efficient, and reversible. Further, upon entering the cytosol of cells, the disulfide linkage is expected to be reduced to release the native protein (FIG. 35c). The CPP-protein conjugate was chemically labeled on amino-groups with cyanine3, which permits visualization of the internalized calmodulin. […]

[2] = target: T1, recombinant caspase-3 enzyme (Homo sapiens, UniProt P42574); experiment: In vitro fluorimetric caspase assay; assay type: biochemical; details: 10 μM substrate, 10 mM DTT
T1 construct: purchased EMD Chemicals (San Diego, Calif.)
T1 sequence (P42574 29-175 limits assumed): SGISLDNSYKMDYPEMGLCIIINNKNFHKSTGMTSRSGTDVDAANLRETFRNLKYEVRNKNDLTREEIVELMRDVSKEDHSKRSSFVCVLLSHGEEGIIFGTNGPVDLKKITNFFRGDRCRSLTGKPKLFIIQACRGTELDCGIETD
T1 sequence (P42574 176-277 limits assumed): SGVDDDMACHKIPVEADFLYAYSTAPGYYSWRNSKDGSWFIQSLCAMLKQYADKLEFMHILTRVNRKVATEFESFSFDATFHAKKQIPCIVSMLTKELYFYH
Excerpt: Reagents for peptide synthesis were purchased from Advanced ChemTech (Louisville, Ky.), NovaBiochem (La Jolla, Calif.), or Anaspec (San Jose, Calif.). Rink resin LS (100-200 mesh, 0.2 mmol/g) was purchased from Advanced ChemTech. Dextrane^Rho, trypsin and α-chymotrypsin were purchased from Sigma-Aldrich (St. Louis, Mo.). Cell culture media, fetal bovine serum, penicillin-streptomycin, 0.25% trypsin-EDTA, and DPBS were purchased from Invitrogen (Carlsbad, Calif.). Nuclear staining dye DRAQ5 was purchased from Thermo Scientific (Rockford, Ill.). Caspase-3, Human, recombinant protein was purchased from EMD Chemicals (San Diego, Calif.).
0.5 μL (100 U/μL) caspase-3 enzyme was first incubated with 90 μL of reaction buffer (50 mM HEPES, pH 7.4, 100 mM NaCl, 10 mM DTT) for 30 min in 96-well plate. Fluorogenic substrates (10 μL, 100 μM) were mixed into the above solutions to start the reactions, and the plate was measured on a Spectramax M5 plate reader (Ex=360 nm, Em=440 nm) (Molecular Devices). Fluorescence units (FU) increase at one-minute intervals was correlated to the release of Amc due to protease activity. The ΔFU/min was calculated from the linear portion of the reaction curve. Reported values are averages of three trials with the standard deviation indicated.

Pin1 [3] = target: T2, Pin1 (Homo sapiens, UniProt Q13526, S16A/Y23A); experiment: Pin1 binding by FA (FITC-labeled peptides); details: FITC-labeled peptide, FA; read-out: KD
T2 construct: The full-length human S16A/Y23A mutant Pin1 was expressed and purified from E. coli; made in house
Method: FA experiments were carried out by incubating 100 nM FITC-labeled peptide with varying concentrations of protein in 20 mM HEPES (pH 7.4), 150 mM NaCl, 2 mM magnesium acetate, and 0.1% bovine serum albumin (BSA) for 2 h at room temperature. The FA values were measured on a Molecular Devices Spectramax M5 plate reader, with excitation and emission wavelengths at 485 and 525 nm, respectively. Equilibrium dissociation constants (KD) were determined by plotting the FA values as a function of protein concentration and fitting the curve to the following equation:

Pin1 [4] = target: T2, Pin1; experiment: FA competition with FITC-labeled peptide 1; details: 100 nM FITC-labeled peptide 1, 400 nM Pin1; read-out: IC50 for inhibiting binding of peptide 1 to Pin1
Method: (§1) (FIG. 37A) Binding to FITC-labeled peptide 37 to Pin1 as analyzed by fluorescent anisotropy (FA). (FIG. 37B) Competition between peptide 37 and FITC-labeled peptide 1 (100 nM) for binding to Pin1 (400 nM) as monitored by FA. (FIG. 37C) Effect of peptide 37 on the cis-trans isomerase activity of Pin1, Pin4, FKBP12, and cyclophilin A using Suc-Ala-Glu-Pro-Phe-pNA as substrate. (FIG. 37D) Comparison of the serum stability of peptides 1 and 37.
(§2) To determine whether peptide 37 binds to the catalytic site of Pin1, its ability to compete with peptide 1 for binding to Pin1 by FA analysis was examined. […] Next, the catalytic activity of Pin1 toward a peptide substrate, Suc-Ala-Glu-Pro-Phe-pNA, in the presence of increasing concentrations of peptide 37 was monitored.

Pin1 [5] = target: T2, Pin1; experiment: cis-trans isomerase activity, Suc-Ala-Glu-Pro-Phe-pNA; assay type: biochemical; details: substrate Suc-Ala-Glu-Pro-Phe-pNA; read-out: IC50 for Pin1 catalytic activity
Method: as §1, §2

[6] = target: bovine serum albumin (BSA) (Bos taurus, UniProt P02769); experiment: biochemical; assay type: binding
Method: (§3) The selectivity of peptide 37 was assessed by two different tests. First, peptide 37 was tested for binding to a panel of arbitrarily selected proteins including bovine serum albumin (BSA), protein tyrosine phosphatases 1B, SHP1, and SHP2, the Grb2 SH2 domain, Ras, and tumor necrosis factor-a. […] Peptide 37 was next tested for potential inhibition of Pin4, FKBP12, and cyclophilin A, the three other common human peptidyl-prolyl cis-trans isomerases. […] Peptide 37 had no effect on the catalytic activity of FKBP12 or cyclophilin A up to 5 μM concentration.

Grb2 SH2 domain = target: T3, Grb2 SH2 domain (Homo sapiens, UniProt P62993); experiment: Selectivity panel binding
T3 construct: the Grb2 SH2 domain
Method: as §3

Ras = experiment: Selectivity panel binding
Method: as §3

SHP1 = SHP1 (Homo sapiens, UniProt P29350); experiment: Selectivity panel binding
Method: as §3

SHP2 = SHP2 (Homo sapiens, UniProt Q06124); experiment: Selectivity panel binding
Method: as §3

[7] = target: protein tyrosine phosphatases 1B (Homo sapiens, UniProt P18031); experiment: Selectivity panel binding
Method: as §3

tumor necrosis factor-a = tumor necrosis factor-a (Homo sapiens, UniProt P01375); experiment: Selectivity panel binding
Method: as §3

FKBP12 = FKBP12 (Homo sapiens, UniProt P62942); experiment: cis-trans isomerase activity; assay type: biochemical; details: up to 5 μM
Method: as §1, §3

Pin4 = Pin4 (Homo sapiens, UniProt Q9Y237); experiment: cis-trans isomerase activity; assay type: biochemical
Method: as §1, §3

cyclophilin A = cyclophilin A (Homo sapiens, UniProt P62937); experiment: cis-trans isomerase activity; assay type: biochemical; details: up to 5 μM
Method: as §1, §3

HeLa cells [8] = experiment: Cellular uptake by flow cytometry; assay type: cell-based, human
Method: The cellular uptake efficiency of peptide 37, peptide 1, and a previously reported membrane-impermeable monocyclic Pin1 inhibitor (Table 18, peptide 46) was assessed by incubating HeLa cells with the FITC-labeled peptides (5 μM) for 2 h and quantifying the total intracellular fluorescence by flow cytometry analysis. […] By contrast, cells treated with peptides 1 and 37 gave MFI values of 2562 and 8792, respectively. Thus, peptide 37 is internalized by HeLa cells ˜4-fold more efficiently than peptide 1. Presumably, the negative charged phosphate group of peptide 1 interacted electrostatically with the positively charged CPP motif and reduced the cellular uptake efficiency of the latter.

HeLa cells [9] = experiment: Western blot of PML protein level; assay type: cell-based, human
Method: FIGS. 38A, 38B, 38C, and 38D display cellular activity of peptide 37. (FIG. 38A) Cellular uptake of peptides 1, 37, and 46 (5 μM) by HeLa cells as analyzed by flow cytometry. MFI, mean fluorescence intensity; none, untreated cells (no peptide). (FIG. 38B) Anti-proliferative effect of peptides 37, 46, and 47 on HeLa cells as measured by MTT assay. (FIG. 38C) Western blots showing the effect of peptides 1, 37 and 47 on the protein level of PML in HeLa cells. β-Actin was used as loading control. (FIG. 38D) Quantification of western blot results from (FIG. 38C). Data reported were after background subtraction and represent the mean±SD from 3 independent experiments.
Finally, to ascertain that Pin1 is the molecular target of peptide 37 in vivo, the intracellular protein level of a well-established Pin1 substrate, […] (PML), was examined by western blot analysis. Pin1 negatively regulates the PML level in a phosphorylation-dependent manner and inhibition of Pin1 activity is expected to stabilize PML and increase its intracellular level. […] The effect was already significant at 0.2 μM inhibitor (1.8-fold increase in the PML level) and plateaued at ˜1 μM (3.3-fold increase). Again, bicyclic peptide 47 had no effect under the same conditions, while peptide 1 (the positive control, at 5 μM) increased the PML level by 3.1-fold.

HeLa cells [10] = tested on: HeLa cells
Excerpt: The effect of peptide 37 on the growth of HeLa cells was examined by using the MTT cell viability assay.

T2 sequence (Q13526 whole entry S16A/Y23A): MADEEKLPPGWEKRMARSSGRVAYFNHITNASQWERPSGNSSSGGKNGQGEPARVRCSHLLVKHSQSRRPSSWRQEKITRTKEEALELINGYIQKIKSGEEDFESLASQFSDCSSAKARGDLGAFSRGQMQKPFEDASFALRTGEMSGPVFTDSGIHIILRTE
Chain of Pin4 (Q9Y237 whole entry): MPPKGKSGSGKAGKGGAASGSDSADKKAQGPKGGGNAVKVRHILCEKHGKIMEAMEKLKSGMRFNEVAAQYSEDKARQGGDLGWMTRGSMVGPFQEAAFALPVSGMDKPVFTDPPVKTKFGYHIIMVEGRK
Chain of SHP2 (Q06124 whole entry, species assumed): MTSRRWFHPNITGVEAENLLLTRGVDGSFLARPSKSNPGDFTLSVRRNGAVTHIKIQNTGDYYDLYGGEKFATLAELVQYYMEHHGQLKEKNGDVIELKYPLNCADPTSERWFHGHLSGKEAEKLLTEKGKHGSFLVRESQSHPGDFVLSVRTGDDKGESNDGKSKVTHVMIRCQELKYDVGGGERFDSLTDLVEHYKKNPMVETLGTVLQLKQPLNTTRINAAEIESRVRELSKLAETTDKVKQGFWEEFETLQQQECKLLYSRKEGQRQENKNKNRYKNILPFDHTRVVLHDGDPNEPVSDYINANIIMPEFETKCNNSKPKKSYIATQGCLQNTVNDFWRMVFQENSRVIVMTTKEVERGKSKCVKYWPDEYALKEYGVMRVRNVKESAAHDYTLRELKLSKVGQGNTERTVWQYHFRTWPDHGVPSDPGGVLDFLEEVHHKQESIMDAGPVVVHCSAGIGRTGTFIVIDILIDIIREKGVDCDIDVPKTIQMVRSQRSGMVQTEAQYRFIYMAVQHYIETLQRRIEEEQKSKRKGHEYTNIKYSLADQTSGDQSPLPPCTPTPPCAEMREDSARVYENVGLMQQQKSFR
Chain of cyclophilin A (P62937 whole entry): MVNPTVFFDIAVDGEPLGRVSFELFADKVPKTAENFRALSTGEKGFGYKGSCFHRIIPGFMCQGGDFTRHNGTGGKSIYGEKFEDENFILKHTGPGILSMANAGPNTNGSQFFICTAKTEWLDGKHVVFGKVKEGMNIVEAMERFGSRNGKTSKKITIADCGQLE
T3 sequence (P62993 60-152 limits assumed): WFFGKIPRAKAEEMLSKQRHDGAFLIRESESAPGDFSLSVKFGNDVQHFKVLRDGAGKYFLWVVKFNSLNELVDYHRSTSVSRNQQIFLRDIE
Chain of FKBP12 (P62942 whole entry): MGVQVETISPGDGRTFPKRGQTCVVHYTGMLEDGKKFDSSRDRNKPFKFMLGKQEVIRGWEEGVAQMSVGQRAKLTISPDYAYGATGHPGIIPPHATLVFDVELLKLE
Chain of SHP1 (P29350 whole entry): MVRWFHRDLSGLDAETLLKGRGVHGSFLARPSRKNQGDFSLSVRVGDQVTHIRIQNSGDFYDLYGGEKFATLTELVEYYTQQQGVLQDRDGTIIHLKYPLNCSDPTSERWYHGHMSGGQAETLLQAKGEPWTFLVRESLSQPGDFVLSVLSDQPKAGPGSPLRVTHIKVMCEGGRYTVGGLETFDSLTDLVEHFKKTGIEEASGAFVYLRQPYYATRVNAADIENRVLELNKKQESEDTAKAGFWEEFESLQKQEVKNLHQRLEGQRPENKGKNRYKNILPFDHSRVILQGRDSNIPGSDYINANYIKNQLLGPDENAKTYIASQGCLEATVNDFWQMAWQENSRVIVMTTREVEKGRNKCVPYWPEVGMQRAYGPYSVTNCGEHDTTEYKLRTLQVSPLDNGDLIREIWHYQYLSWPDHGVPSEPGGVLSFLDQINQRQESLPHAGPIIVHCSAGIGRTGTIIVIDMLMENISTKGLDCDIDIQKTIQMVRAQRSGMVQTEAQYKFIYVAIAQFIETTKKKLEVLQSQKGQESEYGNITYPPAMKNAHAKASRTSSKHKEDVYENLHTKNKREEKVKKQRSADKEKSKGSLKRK
Chain of tumor necrosis factor-a (P01375 77-233 limits assumed): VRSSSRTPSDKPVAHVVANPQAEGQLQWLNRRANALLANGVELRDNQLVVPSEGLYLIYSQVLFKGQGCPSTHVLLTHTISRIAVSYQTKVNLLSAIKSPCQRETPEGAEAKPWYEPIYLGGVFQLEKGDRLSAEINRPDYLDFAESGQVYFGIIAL
Chain of bovine serum albumin (BSA) (P02769 25-607): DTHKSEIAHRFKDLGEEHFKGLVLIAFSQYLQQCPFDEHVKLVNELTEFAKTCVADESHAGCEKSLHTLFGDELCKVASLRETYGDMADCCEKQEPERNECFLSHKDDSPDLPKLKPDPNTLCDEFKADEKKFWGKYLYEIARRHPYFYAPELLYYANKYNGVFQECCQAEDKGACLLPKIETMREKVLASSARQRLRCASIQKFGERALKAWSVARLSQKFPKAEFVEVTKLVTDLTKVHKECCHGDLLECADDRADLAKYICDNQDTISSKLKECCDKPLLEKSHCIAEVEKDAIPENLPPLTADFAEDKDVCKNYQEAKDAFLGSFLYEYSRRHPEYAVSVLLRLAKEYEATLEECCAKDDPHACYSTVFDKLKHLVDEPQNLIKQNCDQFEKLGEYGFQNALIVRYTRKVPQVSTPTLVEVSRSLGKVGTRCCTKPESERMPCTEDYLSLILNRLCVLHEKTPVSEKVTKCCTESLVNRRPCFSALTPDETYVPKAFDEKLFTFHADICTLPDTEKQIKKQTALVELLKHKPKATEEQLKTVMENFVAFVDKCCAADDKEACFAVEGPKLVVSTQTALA
Chain of protein tyrosine phosphatases 1B (P18031 whole entry): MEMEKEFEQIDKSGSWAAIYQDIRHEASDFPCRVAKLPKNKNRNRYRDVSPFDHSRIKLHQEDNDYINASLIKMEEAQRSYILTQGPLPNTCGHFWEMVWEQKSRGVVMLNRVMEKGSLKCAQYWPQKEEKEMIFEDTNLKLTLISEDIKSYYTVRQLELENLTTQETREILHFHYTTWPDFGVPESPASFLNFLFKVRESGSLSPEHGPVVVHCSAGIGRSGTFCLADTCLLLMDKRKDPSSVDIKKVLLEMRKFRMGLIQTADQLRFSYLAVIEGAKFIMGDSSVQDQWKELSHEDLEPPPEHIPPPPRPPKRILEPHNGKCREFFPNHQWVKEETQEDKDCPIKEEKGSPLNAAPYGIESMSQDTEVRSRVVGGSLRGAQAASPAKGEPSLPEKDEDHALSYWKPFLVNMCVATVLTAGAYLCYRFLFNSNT

For c(fΦRrRrQ)-K(FITC)-NH2, the “Internalization into cardiac muscle cells (confocal)” value [1] was “efficient internalization”.

For “A^c−RRRRRRRRRDΩUD^−A^mc (not fully specified (N-terminus, C-terminus); printed as Ac−RRRRRRRRRDΩUD−Amc) [Peptide 7 (Example 2)]”, the “In vitro activity against recombinant caspase-3 enzyme, ΔFU/min” value [2] was 45.3 ± 6.5 ΔFU/min.

Compound `C[C@@H]1NC(=O)[C@H](CCCNC(=N)N)NC(=O)[C@H](Cc2ccc3ccccc3c2)NC(=O)[C@@H]2CCCCN2C(=O)[C@@H]([C@H](C)O)NC(=O)[C@H](Cc2ccc(F)cc2)NC(=O)[C@@H](Cc2ccc(F)cc2)NC(=O)c2cc3cc(c2)C(=O)NC[C@H](NC(=O)[C@@H](Cc2ccccc2)NC1=O)C(=O)N[C@@H](Cc1ccccc1)C(=O)N[C@@H](Cc1ccc2ccccc2c1)C(=O)N[C@@H](CCCNC(=N)N)C(=O)N[C@@H](CCCNC(=N)N)C(=O)N[C@@H](CCCNC(=N)N)C(=O)N[C@@H](CCCNC(=N)N)C(=O)N[C@H](C(=O)N[C@@H](CCCCN)C(N)=O)CNC3=O` [Peptide 37, bicyclo[Tm-(D-4-Fpa-Fpa-D-Thr-Pip-Nal-Arg-Ala-D-Phe)-Dap-(Phe-Nal-Arg-Arg-Arg-Arg-Dap)]-Lys] ([dPhe(4-F)][Phe(4-F)][dT][Pip][2Nal]RA[dF][Dap]F[2Nal]RRRR[Dap]K-NH2; linker N-9-16 via Trimesoyl; C-terminus assumed) has a pKd (Pin1 [3]) of 6.92, a pIC50 (Pin1 [4]) of 6.72 and a pIC50 (Pin1 [5]) of 6.77. The pKd [6] was roughly 4.70, the “Binding to Grb2 SH2 domain” value (Grb2 SH2 domain) was “not any of the other six proteins” and the “Binding to Ras” value (Ras) was “not any of the other six proteins”. The “Binding to SHP1” value (SHP1) was “not any of the other six proteins”, the “Binding to SHP2” value (SHP2) was “not any of the other six proteins” and the “Binding to protein tyrosine phosphatase 1B” value [7] was “not any of the other six proteins”. For the same compound, the “Binding to tumor necrosis factor-a” value (tumor necrosis factor-a) was “not any of the other six proteins”, the “Effect on catalytic activity of FKBP12” value (FKBP12) was “no effect” and the inhibition at 5 µM (Pin4; 5 μM inhibitor) was roughly 15%. For the same compound, the pIC50 (Pin4; estimated) was roughly 4.47, the “Effect on catalytic activity of cyclophilin A” value (cyclophilin A) was “no effect” and the “Internalization more efficient than peptide 1” value (HeLa cells [8]) was roughly 4 fold. For the same compound, the “Mean fluorescence intensity (MFI)” value (HeLa cells [8]; 5 μM FITC-labeled peptide, 2 h) was 8792, the “Increase in the PML level” value (HeLa cells [9]; 0.2 μM inhibitor) was 1.8 fold and the “Effect on the PML level” value (HeLa cells [9]; 0.2-5 μM) was “concentration-dependent increases in the PML level”. The “Increase in the PML level (plateau)” value (HeLa cells [9]; ~1 μM inhibitor) was 3.3 fold, the Growth inhibition (HeLa cells [10]; 3-day treatment with 5 μM) was greater than 60% and the pIC50 (HeLa cells [10]; read-out: IC50 of HeLa cell growth, MTT) was 6.00.
